Data as given in patent US10508120B2, “TYK2 inhibitors and uses thereof” (Nimbus Lakshmi, Inc., priority 2017, dated 2019).

Legend:
[1] = target: Tyk2 kinase domain (DH1) (Homo sapiens (Human), UniProt P29597); test: Tyk2 Radioactive Kinase Assay; assay type: biochemical; conditions: compound at 10 μM, ATP 10 μM; for inhibition at 10 µM: read-out: Tyk2 JH1% Inhibition @ 10 μM
Method in brief: (§1)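 Compounds were tested at a single concentration of 10 μM in a radiometric kinase format against each isolated kinase domain. Activity is reported as percent inhibition at that concentration.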

[2] = target: JAK2 kinase domain (JH1) (Homo sapiens (Human), UniProt O60674); test: JAK2 Radioactive Kinase Assay; assay type: biochemical; conditions: compound at 10 μM, ATP 10 μM; for inhibition at 10 µM: read-out: JAK2 JH1% Inhibition @ 10 μM
Method in brief: as §1

[3] = target: JAK2/JAK2 homdimeric complex (Homo sapiens (Human), UniProt O60674); test: GM-CSF Induced pSTAT5 in Human PBMC; assay type: cell-based; conditions: GM-CSF 5 ng/mL for 20 minutes, pSTAT5 by MSD, read-out: PBMC_GMCSF_pSTAT5 IC50
[4] = target: human TYK2 (JH2domain-pseudokinase) (Homo sapiens (Human), UniProt P29597); test: TYK2 JH2 Domain Binding Assay (KINOMEscan)
Method in brief: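 Kds, run in duplicate, came from Hill fits (slope fixed at −1) of an 11-point 3-fold dilution series starting at 30,000 nM. Bead-retained TYK2 JH2 (aa G556–D888)–NFkB DBD fusion, DNA-tagged and expressed in HEK293 cells, was read by qPCR after 1 h room-temperature binding in 0.9% DMSO.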

[5] = target: Tyk2/JAK2 (heterodimeric complex) (Homo sapiens (Human), UniProt P29597); test: IL-12 Induced pSTAT4 in Human PBMC; assay type: cell-based; conditions: 1.7 ng/mL IL-12
Excerpt: The IL-12 Induced pSTAT4 assay evaluates the inhibition of IL-12 induced STAT4 phophorylation mediated by Tyk2/JAK2 (heterodimeric complex).

Chain of human TYK2 (JH2domain-pseudokinase) (P29597 556-888): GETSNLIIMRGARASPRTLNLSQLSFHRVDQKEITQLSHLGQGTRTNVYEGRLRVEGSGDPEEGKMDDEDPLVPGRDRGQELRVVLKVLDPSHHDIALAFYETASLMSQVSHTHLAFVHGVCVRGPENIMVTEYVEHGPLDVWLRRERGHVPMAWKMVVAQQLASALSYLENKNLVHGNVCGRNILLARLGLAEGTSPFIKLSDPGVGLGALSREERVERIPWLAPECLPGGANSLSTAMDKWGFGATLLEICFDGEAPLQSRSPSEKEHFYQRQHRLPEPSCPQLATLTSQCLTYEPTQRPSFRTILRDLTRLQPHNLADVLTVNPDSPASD
Chain of Tyk2/JAK2 (heterodimeric complex) (P29597 whole entry, other chains not shown): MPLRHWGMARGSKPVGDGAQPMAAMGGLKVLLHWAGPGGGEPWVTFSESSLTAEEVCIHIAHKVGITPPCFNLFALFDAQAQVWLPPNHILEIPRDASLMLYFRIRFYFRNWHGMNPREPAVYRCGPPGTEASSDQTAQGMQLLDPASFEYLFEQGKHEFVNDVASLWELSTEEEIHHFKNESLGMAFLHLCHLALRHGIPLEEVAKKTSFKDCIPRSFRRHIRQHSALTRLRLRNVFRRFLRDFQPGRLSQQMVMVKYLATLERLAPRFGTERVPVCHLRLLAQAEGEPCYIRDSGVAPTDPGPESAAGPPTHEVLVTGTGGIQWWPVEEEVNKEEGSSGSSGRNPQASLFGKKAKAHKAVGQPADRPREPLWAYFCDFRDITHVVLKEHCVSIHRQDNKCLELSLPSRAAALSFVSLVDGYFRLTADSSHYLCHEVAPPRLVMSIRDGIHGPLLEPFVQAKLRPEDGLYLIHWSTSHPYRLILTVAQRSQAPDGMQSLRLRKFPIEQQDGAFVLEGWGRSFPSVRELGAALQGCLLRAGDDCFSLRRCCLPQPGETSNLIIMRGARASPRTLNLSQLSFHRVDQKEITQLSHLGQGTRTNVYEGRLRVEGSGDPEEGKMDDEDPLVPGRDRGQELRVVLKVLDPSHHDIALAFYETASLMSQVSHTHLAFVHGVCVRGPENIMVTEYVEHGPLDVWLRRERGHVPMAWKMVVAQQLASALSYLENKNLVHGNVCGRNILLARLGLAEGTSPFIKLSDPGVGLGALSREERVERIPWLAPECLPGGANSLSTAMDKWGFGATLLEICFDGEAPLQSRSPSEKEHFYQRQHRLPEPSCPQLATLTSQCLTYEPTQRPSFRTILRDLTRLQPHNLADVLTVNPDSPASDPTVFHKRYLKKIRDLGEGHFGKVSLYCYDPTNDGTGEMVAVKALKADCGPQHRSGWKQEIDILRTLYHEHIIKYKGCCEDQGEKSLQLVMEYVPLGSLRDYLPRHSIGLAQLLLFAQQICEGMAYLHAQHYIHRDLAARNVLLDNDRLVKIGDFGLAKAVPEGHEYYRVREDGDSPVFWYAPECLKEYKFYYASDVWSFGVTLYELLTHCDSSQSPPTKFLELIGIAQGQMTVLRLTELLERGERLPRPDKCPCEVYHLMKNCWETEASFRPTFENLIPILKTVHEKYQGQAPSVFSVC
Chain of JAK2 kinase domain (JH1) (O60674 849-1124): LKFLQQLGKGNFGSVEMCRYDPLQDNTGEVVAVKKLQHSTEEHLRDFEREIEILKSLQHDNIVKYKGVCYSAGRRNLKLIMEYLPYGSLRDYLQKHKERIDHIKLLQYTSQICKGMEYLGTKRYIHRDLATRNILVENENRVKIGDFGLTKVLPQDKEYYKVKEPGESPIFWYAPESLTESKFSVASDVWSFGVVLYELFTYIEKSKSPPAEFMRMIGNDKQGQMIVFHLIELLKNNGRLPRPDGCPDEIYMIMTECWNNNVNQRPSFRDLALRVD
Chain of JAK2/JAK2 homdimeric complex (O60674 whole entry, the tested form may be a part): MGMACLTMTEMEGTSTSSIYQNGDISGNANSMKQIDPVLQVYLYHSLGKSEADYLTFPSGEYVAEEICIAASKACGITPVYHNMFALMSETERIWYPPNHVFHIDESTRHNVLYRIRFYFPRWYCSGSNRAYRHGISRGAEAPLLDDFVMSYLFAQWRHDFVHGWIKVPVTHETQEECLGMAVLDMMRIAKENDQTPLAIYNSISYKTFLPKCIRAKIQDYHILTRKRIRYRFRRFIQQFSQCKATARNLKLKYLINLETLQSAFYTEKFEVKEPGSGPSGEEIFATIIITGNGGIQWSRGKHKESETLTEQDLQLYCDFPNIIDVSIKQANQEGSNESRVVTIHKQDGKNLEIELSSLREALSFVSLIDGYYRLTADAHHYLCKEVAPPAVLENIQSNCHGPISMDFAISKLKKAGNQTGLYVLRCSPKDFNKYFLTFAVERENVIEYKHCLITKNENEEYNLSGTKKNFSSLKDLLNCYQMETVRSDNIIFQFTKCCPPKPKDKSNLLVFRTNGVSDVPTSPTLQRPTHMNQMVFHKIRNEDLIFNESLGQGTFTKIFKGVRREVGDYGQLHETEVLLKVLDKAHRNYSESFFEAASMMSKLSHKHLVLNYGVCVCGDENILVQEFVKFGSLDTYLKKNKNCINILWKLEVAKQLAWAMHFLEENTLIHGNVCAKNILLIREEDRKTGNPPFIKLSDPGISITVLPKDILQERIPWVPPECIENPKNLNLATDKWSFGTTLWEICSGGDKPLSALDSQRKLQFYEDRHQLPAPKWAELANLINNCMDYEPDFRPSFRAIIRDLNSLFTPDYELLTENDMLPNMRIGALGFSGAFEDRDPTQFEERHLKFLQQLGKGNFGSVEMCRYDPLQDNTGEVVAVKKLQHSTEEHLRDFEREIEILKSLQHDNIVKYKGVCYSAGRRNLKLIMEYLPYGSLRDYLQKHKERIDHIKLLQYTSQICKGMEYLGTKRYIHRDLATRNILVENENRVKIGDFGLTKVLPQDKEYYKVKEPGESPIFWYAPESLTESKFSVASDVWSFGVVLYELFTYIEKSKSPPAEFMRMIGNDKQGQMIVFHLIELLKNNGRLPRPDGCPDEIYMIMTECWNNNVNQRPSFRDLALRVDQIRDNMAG
Chain of JAK2/JAK2 homdimeric complex (P32927 17-897 partner): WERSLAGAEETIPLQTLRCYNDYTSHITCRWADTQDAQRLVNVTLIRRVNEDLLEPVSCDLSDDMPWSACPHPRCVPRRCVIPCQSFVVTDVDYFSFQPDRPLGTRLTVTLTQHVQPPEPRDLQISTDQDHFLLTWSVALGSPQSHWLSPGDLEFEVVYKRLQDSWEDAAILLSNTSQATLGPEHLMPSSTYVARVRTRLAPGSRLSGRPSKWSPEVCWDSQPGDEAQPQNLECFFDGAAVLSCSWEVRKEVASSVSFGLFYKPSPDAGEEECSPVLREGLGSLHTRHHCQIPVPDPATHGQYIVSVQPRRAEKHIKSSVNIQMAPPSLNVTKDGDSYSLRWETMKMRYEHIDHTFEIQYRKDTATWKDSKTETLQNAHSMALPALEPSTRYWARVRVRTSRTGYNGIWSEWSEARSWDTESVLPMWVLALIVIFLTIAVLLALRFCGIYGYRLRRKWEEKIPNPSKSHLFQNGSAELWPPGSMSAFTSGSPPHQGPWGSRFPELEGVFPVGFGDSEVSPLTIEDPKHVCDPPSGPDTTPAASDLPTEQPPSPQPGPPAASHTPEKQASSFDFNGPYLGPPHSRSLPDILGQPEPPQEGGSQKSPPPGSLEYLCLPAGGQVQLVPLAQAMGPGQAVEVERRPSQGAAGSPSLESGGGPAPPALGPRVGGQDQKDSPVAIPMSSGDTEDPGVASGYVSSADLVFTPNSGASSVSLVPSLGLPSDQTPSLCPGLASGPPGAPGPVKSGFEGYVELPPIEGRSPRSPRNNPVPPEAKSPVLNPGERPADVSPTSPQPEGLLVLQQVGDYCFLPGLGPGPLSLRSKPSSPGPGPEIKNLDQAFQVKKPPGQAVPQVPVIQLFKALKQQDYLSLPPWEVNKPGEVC
Chain of Tyk2 kinase domain (DH1) (P29597 897-1176): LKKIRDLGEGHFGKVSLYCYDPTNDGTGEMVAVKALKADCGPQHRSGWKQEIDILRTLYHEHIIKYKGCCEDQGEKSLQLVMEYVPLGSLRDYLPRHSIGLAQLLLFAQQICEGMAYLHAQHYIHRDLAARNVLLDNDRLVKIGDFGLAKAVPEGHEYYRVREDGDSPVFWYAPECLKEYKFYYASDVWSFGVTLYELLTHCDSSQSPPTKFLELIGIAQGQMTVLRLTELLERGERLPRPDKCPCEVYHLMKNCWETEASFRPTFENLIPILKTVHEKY

**Q.** How did the inhibition at 10 µM [1] turn out when CNc1cc(Nc2cccc([C@@H]3CCCOC3)n2)nc2c(C(=O)N[C@H]3CC[C@@H]3O)cnn12 [I-603] was run?
**A.** The inhibition at 10 µM was 50 to 70%.

**Q.** What about the inhibition at 10 µM [2] of the same compound?
**A.** The inhibition at 10 µM was 50 to 70%.

**Q.** And the IC50 [3]?
**A.** Its IC50 is greater than 2500 nM.

**Q.** What about the Kd [4] of the same compound?
**A.** The Kd was less than 0.2 nM.

**Q.** What about the IC50 [5] of the same compound?
**A.** Its IC50 is less than 100 nM.

**Q.** What does the source list for CNc1cc(Nc2cccn(-c3cn(C)nc3F)c2=O)nc2c(C(=O)NC3CC3)cnn12 [I-606]?
**A.** inhibition at 10 µM [1]: < 50%; inhibition at 10 µM [2]: < 50%; IC50 [3]: > 12500 nM; Kd [4]: < 0.2 nM; IC50 [5]: 100 to 500 nM

**Q.** For CNc1cc(Nc2cccn(-c3cn(C)nc3F)c2=O)nc2c(C(=O)N[C@H]3C[C@H]3F)cnn12 [I-607], which inhibition at 10 µM [1] is on record?
**A.** The inhibition at 10 µM was less than 50%.

**Q.** And the inhibition at 10 µM [2]?
**A.** The inhibition at 10 µM was less than 50%.

**Q.** And the IC50 [3]?
**A.** The IC50 was greater than 50000 nM.

**Q.** What about the Kd [4] of the same compound?
**A.** The Kd was less than 0.2 nM.

**Q.** And the IC50 [5]?
**A.** The IC50 was less than 100 nM.

**Q.** Which results are given for CNc1cc(-c2cn(C(C)C)c3ncccc23)nc2c(C(=O)N[C@H]3C[C@H](O)C3)cnn12 [I-630, N-((1r, 3r)-3-hydroxycyclobutyl)-5-(1-isopropyl-1H-pyrrolo[2,3-b]pyridin-3-yl)-7-(methylamino)pyrazolo[1,5-a]pyrimidine-3-carboxamide]?
**A.** inhibition at 10 µM [1]: < 50%; inhibition at 10 µM [2]: < 50%; IC50 [3]: > 2500 nM; Kd [4]: < 0.2 nM; IC50 [5]: < 100 nM

**Q.** Which inhibition at 10 µM [1] does the source give for CNc1cc(Nc2cccn([C@H]3CC[C@H](OC)CC3)c2=O)nc2c(C(=O)N[C@@H]3CC[C@H]3O)cnn12 [I-635] here?
**A.** Its inhibition at 10 µM is less than 50%.

**Q.** And the inhibition at 10 µM [2]?
**A.** Its inhibition at 10 µM is less than 50%.

**Q.** What about the IC50 [3] of the same compound?
**A.** Its IC50 is greater than 50000 nM.

**Q.** And the Kd [4]?
**A.** The Kd was less than 0.2 nM.

**Q.** What about the IC50 [5] of the same compound?
**A.** Its IC50 is less than 100 nM.

**Q.** What does the source list for CNc1cc(-c2cn(C(C)C)c3ncccc23)nc2c(C(=O)N[C@H]3CC[C@H]3O)cnn12 [I-637]?
**A.** inhibition at 10 µM [1]: < 50%; inhibition at 10 µM [2]: < 50%; IC50 [3]: > 12500 nM; Kd [4]: < 0.2 nM; IC50 [5]: < 100 nM

**Q.** For CNc1cc(-c2cn(C(C)C)c3ncccc23)nc2c(C(=O)N[C@H]3CC[C@@H]3O)cnn12 [I-639], which “Tyk2 JH1% Inhibition @ 10 μM” value [1] is on record?
**A.** Its value is “A (percent inhibition at 10 μM lower than 50)”.

**Q.** What about the “JAK2 JH1% Inhibition @ 10 μM” value [2] of the same compound?
**A.** The value was “A (percent inhibition at 10 μM lower than 50)”.

**Q.** And the IC50 [3]?
**A.** The IC50 was greater than 12500 nM.

**Q.** And the Kd [4]?
**A.** The Kd was less than 0.2 nM.

**Q.** And the IC50 [5]?
**A.** Its IC50 is less than 100 nM.

**Q.** Which inhibition at 10 µM [1] does the source give for CNc1cc(-c2cn(C(C)C)c3ncccc23)nc2c(C(=O)N[C@@H]3CC[C@H]3O)cnn12 [I-640] here?
**A.** The inhibition at 10 µM was less than 50%.

**Q.** And the inhibition at 10 µM [2]?
**A.** Its inhibition at 10 µM is less than 50%.

**Q.** And the IC50 [3]?
**A.** Its IC50 is greater than 12500 nM.

**Q.** And the Kd [4]?
**A.** Its Kd is less than 0.2 nM.

**Q.** What about the IC50 [5] of the same compound?
**A.** Its IC50 is less than 100 nM.

**Q.** Which results are given for CNc1cc(Nc2cccc3ocnc23)nc2c(C(=O)N[C@@H]3CC[C@@H]3O)cnn12 [I-661]?
**A.** inhibition at 10 µM [1]: < 50%; inhibition at 10 µM [2]: < 50%; IC50 [3]: > 12500 nM; Kd [4]: < 0.2 nM; IC50 [5]: < 100 nM

**Q.** Which results are given for CNc1cc(Nc2cccc([C@@H]3CCCOC3)n2)nc2c(C(=O)N[C@@H]3CC[C@H]3O)cnn12 [I-665]?
**A.** inhibition at 10 µM [1]: < 50%; inhibition at 10 µM [2]: 50 to 70%; IC50 [3]: > 2500 nM; Kd [4]: < 0.2 nM; IC50 [5]: < 100 nM

**Q.** With CNc1cc(Nc2cccc([C@H]3CCCOC3)n2)nc2c(C(=O)N[C@@H]3CC[C@H]3O)cnn12 [I-667] as the compound, how does the inhibition at 10 µM [1] read?
**A.** The inhibition at 10 µM was less than 50%.

**Q.** And the inhibition at 10 µM [2]?
**A.** Its inhibition at 10 µM is less than 50%.

**Q.** And the IC50 [3]?
**A.** Its IC50 is greater than 12500 nM.

**Q.** What about the Kd [4] of the same compound?
**A.** Its Kd is less than 0.2 nM.

**Q.** And the IC50 [5]?
**A.** The IC50 was less than 100 nM.

**Q.** Which inhibition at 10 µM [1] does the source give for CNc1cc(Nc2cccn([C@H]3CC[C@](C)(OC)CC3)c2=O)nc2c(C(=O)N[C@@H]3CC[C@@H]3O)cnn12 [I-670, N-(2-hydroxycyclobutyl)-5-((1-((1R,4S)-4-methoxy-4-methylcyclohexyl)-2-oxo-1,2-dihydropyridin-3-yl)amino)-7-(methylamino)pyrazolo[1,5-a]pyrimidine-3-carboxamide] here?
**A.** The inhibition at 10 µM was less than 50%.

**Q.** What about the inhibition at 10 µM [2] of the same compound?
**A.** The inhibition at 10 µM was less than 50%.

**Q.** And the IC50 [3]?
**A.** Its IC50 is greater than 50000 nM.

**Q.** What about the Kd [4] of the same compound?
**A.** The Kd was less than 0.2 nM.

**Q.** What about the IC50 [5] of the same compound?
**A.** Its IC50 is less than 100 nM.

**Q.** Which inhibition at 10 µM [1] does the source give for CNc1cc(Nc2cccn(-c3ncc(OC)cc3F)c2=O)nc2c(C(=O)N[C@H]3C[C@H]3F)cnn12 [I-673] here?
**A.** Its inhibition at 10 µM is less than 50%.

**Q.** And the inhibition at 10 µM [2]?
**A.** Its inhibition at 10 µM is less than 50%.

**Q.** And the IC50 [3]?
**A.** Its IC50 is greater than 50000 nM.

**Q.** And the Kd [4]?
**A.** The Kd was less than 0.2 nM.

**Q.** What about the IC50 [5] of the same compound?
**A.** Its IC50 is less than 100 nM.

**Q.** Which inhibition at 10 µM [1] does the source give for CNc1cc(Nc2cccn(-c3ncc(C)s3)c2=O)nc2c(C(=O)N[C@@H]3CC[C@@H]3O)cnn12 [I-677] here?
**A.** The inhibition at 10 µM was less than 50%.

**Q.** What about the inhibition at 10 µM [2] of the same compound?
**A.** Its inhibition at 10 µM is less than 50%.

**Q.** What about the IC50 [3] of the same compound?
**A.** The IC50 was greater than 2500 nM.

**Q.** And the Kd [4]?
**A.** The Kd was less than 0.2 nM.

**Q.** And the IC50 [5]?
**A.** Its IC50 is less than 100 nM.

**Q.** Which results are given for CNc1cc(Nc2cccn(-c3ccccn3)c2=O)nc2c(C(=O)NC3CC3)cnn12 [I-680]?
**A.** inhibition at 10 µM [1]: < 50%; inhibition at 10 µM [2]: < 50%; IC50 [3]: > 12500 nM; Kd [4]: < 0.2 nM; IC50 [5]: < 100 nM

**Q.** For CNc1cc(Nc2cccn(-c3ccccn3)c2=O)nc2c(C(=O)N[C@H]3C[C@H]3F)cnn12 [I-681], which inhibition at 10 µM [1] is on record?
**A.** The inhibition at 10 µM was less than 50%.

**Q.** What about the inhibition at 10 µM [2] of the same compound?
**A.** Its inhibition at 10 µM is less than 50%.

**Q.** And the IC50 [3]?
**A.** The IC50 was greater than 12500 nM.

**Q.** What about the Kd [4] of the same compound?
**A.** Its Kd is less than 0.2 nM.

**Q.** What about the IC50 [5] of the same compound?
**A.** Its IC50 is less than 100 nM.

**Q.** What does the source list for CNc1cc(Nc2cc(Cl)cn(C3CCCOC3)c2=O)nc2c(C(=O)N[C@H]3C[C@H]3F)cnn12 (stereo partly shown) [I-693]?
**A.** inhibition at 10 µM [1]: < 50%; inhibition at 10 µM [2]: < 50%; IC50 [3]: > 50000 nM; Kd [4]: < 0.2 nM; IC50 [5]: < 100 nM
